The values that follow come from US20260166159A1, “KRAS G12D DEGRADATION AGENT, AND PREPARATION METHOD AND USE THEREFOR” (LEADINGTAC PHARMACEUTICAL (SHAOXING) CO., LTD., priority 2022, published 2026).

What all share (format): cell-based
Experiment [1] has as its system KRAS G12D mutant human lung cancer cell A427. As to the kind of experiment: 3D cell proliferation inhibition assay, A427. The following applies: A-427, 168 h, A427, 7 days, CTG. An outline of the steps:
(§1)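 Cells were seeded at 5×10^2 cells/well in low-adsorption plates with compound (10000–0.026 nM final, 0.2% DMSO) and grown for 7 days at 37 °C, 5% CO2. Viability was read by CTG luminescence after 60 min at room temperature. IC50 came from log concentration–inhibition curve fits, normalised to DMSO and medium-only controls.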

Experiment [2] relates to KRAS G12D mutant human pancreatic cancer cell HPAC. As to the kind of experiment: 3D cell proliferation inhibition assay, HPAC. Particulars: 168 h, 7 days, CTG. An outline of the steps:
as §1

The target in experiment [3] is T1, KRAS-G12D (Homo sapiens, UniProt P01116, G12D).
T1 construct: endogenous in cells; host or cells: A-427 (ATCC), AGS, AsPc-1, Panc 04.03
T1 sequence (P01116 1-188 isoform P01116-2 G12D): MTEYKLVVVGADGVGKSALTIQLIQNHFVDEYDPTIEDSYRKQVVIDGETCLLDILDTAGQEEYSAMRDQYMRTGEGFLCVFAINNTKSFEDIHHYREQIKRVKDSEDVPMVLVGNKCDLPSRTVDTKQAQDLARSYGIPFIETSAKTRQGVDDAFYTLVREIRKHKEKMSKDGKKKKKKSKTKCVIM
As to the kind of experiment: KRAS-G12D degradation assay (Western Blot), AGS cells. Particulars: 24 h. As for the experimental part: (§2) The degradation effects of the compounds on KRAS-G12D were investigated on KRAS G12D mutant human lung cancer cell A-427 (ATCC), KRAS G12D mutant human gastric cancer cell AGS, KRAS G12D mutant human metastatic pancreatic cancer cell AsPc-1, and KRAS G12D mutant human pancreatic adenocarcinoma cell Panc 04.03. The specific procedures were as follows: 0.95 mL of cells were seeded into each well of a 24-well cell culture plate to achieve a cell density of 5×10^5 cells/well; and the cell plate was incubated in an incubator at 37° C. with 5% CO2 overnight. Then 50 μL of the compound solution after dilution was added to each of the wells with the corresponding cells, so that the final concentration of the compound was in a range of 0.03-3000 nM. The final concentration of DMSO was 0.25%. After the compounds were added, the cell plate was incubated in the incubator at 37° C. with 5% CO2 for 24 h. The culture medium in the 24-well cell culture plate was removed, and the plate was washed twice with 1×PBS (KeyGEN). 120 μL of RIPA (strong) lysis buffer (Beyotime) supplemented with 1 mM phenylmethylsulfonyl fluoride, a protease inhibitor mixture (Beyotime), and a protease phosphatase inhibitor mixture (Beyotime) was added to lyse adherent A-427 cells at the bottom of the cell culture plate. After the plate was left to stand on ice for 30 min, the protein lysate in each well was transferred to a 1.5 mL centrifuge tube and centrifuged at 15000 g for 20 min at 4° C. The cell lysate supernatants after centrifugation were cryopreserved in a refrigerator at −80° C. for later use.
(§3) After the samples of the cell lysate supernatants that had been prepared were thawed from the refrigerator at −80° C., the total protein concentrations of the cell lysates were determined using a BCA protein quantification kit (Tiangen). The total protein concentrations of the samples were then adjusted to 0.5 μg/μL with PBS and 5×SDS-PAGE protein loading buffer (Beyotime), and the samples were incubated in a water bath at 100° C. for 15 min. The samples were then incubated in an ice bath for 5 min and centrifuged at 14000 g for 1 min at 4° C., and the supernatants were mixed well as loading samples for the Western Blot assay. The samples were loaded into wells of a 10% precast gel (KeyGEN) with a loading volume of 10 μL (total protein: 5 μg), a sufficient Tris-MOPS-SDS running buffer (Adamas) was added, and then electrophoresis was performed at a constant voltage of 120 V for 55 min. After the electrophoresis, the proteins on the gel were transferred to PVDF membranes at a constant current of 250 mA for 55 min. After the membrane transfer, the PVDF membranes were incubated in 1× Quick Block blocking buffer (Beyotime) at room temperature for 30 min. After the blocking, the PVDF membranes were separately incubated at 4° C. overnight with the KRAS antibody (Abcam) diluted in a ratio of 1:1000 and the […] antibody (Abcam) diluted in a ratio of 1:2000 in 5% BSA as the diluent, and then washed with 1×TBST buffer (2.4 g of Tris, 8.8 g of NaCl, 1.5 mL of Tween 20, with pH adjusted to 7.4, with the volume brought to 1 L) 3 times for 10 min/time. The membranes were incubated with a secondary antibody (Abcam) diluted in 5% BSA at room temperature for 2 h, and then washed with 1×TBST buffer 3 times for 10 min/time. Finally, the membranes were incubated with Clarity Western ECL Substrate (BIO-RAD) for 5 min for luminescence and color development, and a ChemiScope 6200 Touch chemiluminescence imaging system (Clinx) was used for color development and protein mapping. Gray value analysis of the protein maps was performed using the chemiluminescence analysis software (Clinx). The gray correction value for each sample was calculated using the formula: gray correction value=(gray value of target protein/gray value of corresponding internal reference)×10^3. Then degradation rates were calculated by comparison with the gray correction value of the control group. […]
A general note: Immunoblotting shows a protein as a band on a membrane.

The target of experiment [4] is T1, KRAS-G12D. Kind of experiment: KRAS-G12D degradation assay (Western Blot), AsPc-1 cells. The following applies: for DC50: 24 h; for Dmax: ASPC1, 24 h. The gist of the method: (§4)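 Each KRAS G12D mutant line (A-427, AGS, AsPc-1, Panc 04.03) was seeded at 5×10^5 cells/well and treated 24 h at 37 °C with 0.03–3000 nM compound (final DMSO 0.25%). KRAS in lysates was measured by Western blot, normalized to β-actin and compared with controls, giving DC50 and Dmax from curve fits.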

Experiment [5] relates to KRAS G12D mutant human gastric cancer cell AGS. Kind of experiment: 3D cell proliferation inhibition assay, AGS. Particulars: 168 h, 7 days, CTG. The gist of the method:
as §1

Experiment [6] deals with T1, KRAS-G12D. As to the kind of experiment: KRAS-G12D degradation assay (Western Blot), A-427 cells. Particulars: A427 cells, 24 h; for Dmax: A-427. The gist of the method:
as §4

For experiment [7], the system named is KRAS G12D mutant human metastatic pancreatic cancer cell AsPc-1. As to the kind of experiment: 3D cell proliferation inhibition assay, AsPc-1. The following applies: ASPC1, 168 h, AsPc-1, 7 days, CTG. An outline of the steps:
as §1

The subject of experiment [8] is KRAS G12D mutant human pancreatic cancer cell Panc 04.03. As to the kind of experiment: 3D cell proliferation inhibition assay, Panc 04.03. Particulars: 168 h, Panc 04.03, 7 days, CTG. The gist of the method:
as §1

For experiment [9], the target named is T1, KRAS-G12D. Kind of experiment: KRAS-G12D degradation assay (Western Blot), Panc 04.03 cells. The following applies: 24 h. As for the experimental part: as §2, §3

A value given as a limit tells only on which side of the number the result lay.

For orientation: IC50 means the concentration at which inhibition is half-maximal. A high value points to weaker potency. One may read the DC50 as the midpoint of the concentration-degradation curve. The low end stands for a more potent degrader, the high end for a less potent degrader. One may read the Dmax as the greatest extent of degradation seen. A high value points to a fuller loss of target. Turning to `CCc1c(F)ccc2cc(O)cc(-c3ccc4c(N5CC6CCC(C5)N6)nc(OCC5(CN6CCN(CC7CCC8(CC7)CCN(C(=O)c7ccc(C)c(N9CCC(=O)NC9=O)c7)CC8)CC6)CC5)nc4c3F)c12` [Example 75, 1-(5-(9-((4-((1-(((4-(3,8-diazabicyclo[3.2.1]octan-3-yl)-7-(8-ethyl-7-fluoro-3-hydroxynaphthalen-1-yl)-8-fluoroquinazolin-2-yl)oxy)methyl)cyclopropyl)methyl)piperazin-1-yl)methyl)-3-azaspiro[5.5]undecane-3-carbonyl)-2-methylphenyl)dihydropyrimidine-2,4(1H,3H)-dione], the IC50 in experiment [1] (numeric values) was 0.0881 µM; in experiment [2], 0.0113 µM; in [5] (numeric values) it was 0.0091 µM; in experiment [7] (numeric values) it was 0.0149 µM; in [8] (numeric values), 0.0839 µM. Moreover, the DC50 on KRAS-G12D [3] came to 0.0578 µM; on KRAS-G12D [4], 0.00879 µM; at KRAS-G12D [6] (numeric values), 0.00413 µM; at KRAS-G12D [9] it was 0.00938 µM. Further, the maximal degradation (Dmax) was determined as 89.2% at KRAS-G12D [3], 99.5% at KRAS-G12D [4], 83.8% at KRAS-G12D [6] (numeric values) and 92% on KRAS-G12D [9].
For the molecule `CCc1cccc2cc(O)cc(-c3ncc4c(N5CC6CCC(C5)N6)nc(OCC5(CN6CCN(CC7CCC8(CC7)CCN(C(=O)c7ccc(Cl)c(N9CCC(=O)NC9=O)c7)CC8)CC6)CC5)nc4c3F)c12` [Example 50, 1-(5-(9-((4-((1-(((4-(3,8-diazabicyclo[3.2.1]octan-3-yl)-7-(8-ethyl-3-hydroxynaphthalen-1-yl)-8-fluoropyrido[4,3-d]pyrimidin-2-yl)oxy)methyl)cyclopropyl)methyl)piperazin-1-yl)methyl)-3-azaspiro [5.5]undecane-3-carbonyl)-2-chlorophenyl)dihydropyrimidine-2,4(1H,3H)-dione], the IC50 in [1] (class symbols) was ≤ 0.05 µM; in experiment [2], 0.0116 µM; in experiment [5] (class symbols) it was ≤ 0.05 µM; in [7] (class symbols) it was ≤ 0.05 µM; in [8] (class symbols), ≤ 0.05 µM. In addition, the half-maximal degradation concentration (DC50) on KRAS-G12D [3] is 0.00173 µM; at KRAS-G12D [4], 0.0331 µM; on KRAS-G12D [6] (class symbols) it was ≤ 0.05 µM; at KRAS-G12D [9] it was 0.0319 µM. The Dmax was 97.3% on KRAS-G12D [3], 100% at KRAS-G12D [4], 80 to 100% at KRAS-G12D [6] (class symbols) and 99.3% at KRAS-G12D [9].
`CCc1c(F)ccc2cc(O)cc(-c3ccc4c(N5CC6CCC(C5)N6)nc(OCC5(CN6CCN(CC7CCC8(CC7)CCN(C(=O)c7ccc(OC)c(N9CCC(=O)NC9=O)c7)CC8)CC6)CC5)nc4c3F)c12` [Example 73, 1-(5-(9-((4-((1-(((4-(3,8-diazabicyclo[3.2.1]octan-3-yl)-7-(8-ethyl-7-fluoro-3-hydroxynaphthalen-1-yl)-8-fluoroquinazolin-2-yl)oxy)methyl)cyclopropyl)methyl)piperazin-1-yl)methyl)-3-azaspiro[5.5]undecane-3-carbonyl)-2-methoxyphenyl)dihydropyrimidine-2,4(1H,3H)-dione]: the IC50 in experiment [1] (numeric values) worked out at 0.00354 µM; in experiment [2] it was 0.0147 µM; in [5] (numeric values) it was 0.0211 µM; in [7] (numeric values) it was 0.0149 µM; in [8] (numeric values), 0.0648 µM. For the same molecule, the DC50 on KRAS-G12D [3] amounted to 0.016 µM; on KRAS-G12D [4], 0.0357 µM; on KRAS-G12D [6] (numeric values), 0.0198 µM; on KRAS-G12D [9] it was 0.0271 µM. Further, the greatest degradation seen (Dmax) was determined as 85.7% at KRAS-G12D [3], 100% at KRAS-G12D [4], 87.2% at KRAS-G12D [6] (numeric values) and 95.6% on KRAS-G12D [9].
Consider `C#Cc1c(F)ccc2cc(O)cc(-c3ccc4c(N5CC6CCC(C5)N6)nc(OCC5(CN6CCN(CC7CCC8(CC7)CCN(C(=O)c7ccc(OC)c(N9CCC(=O)NC9=O)c7)CC8)CC6)CC5)nc4c3F)c12` [Example 71, 1-(5-(9-((4-((1-(((4-(3,8-diazabicyclo[3.2.1]octan-3-yl)-7-(8-ethynyl-7-fluoro-3-hydroxynaphthalen-1-yl)-8-fluoroquinazolin-2-yl)oxy)methyl)cyclopropyl)methyl)piperazin-1-yl)methyl)-3-azaspiro[5.5]undecane-3-carbonyl)-2-methoxyphenyl)dihydropyrimidine-2,4(1H,3H)-dione], for which the concentration for half-maximal inhibition (IC50) stood at 0.0468 µM in [1] (numeric values); 0.00931 µM in experiment [2]; 0.00417 µM in experiment [5] (numeric values); 0.00528 µM in experiment [7] (numeric values); 0.0167 µM in experiment [8] (numeric values). For the same molecule, the DC50 at KRAS-G12D [3] was 0.00702 µM; at KRAS-G12D [4] it was 0.00476 µM; on KRAS-G12D [6] (numeric values) it was 0.0021 µM; at KRAS-G12D [9] it was 0.0119 µM. In addition, the maximal degradation (Dmax) worked out at 99.6% at KRAS-G12D [3], 98.6% on KRAS-G12D [4], 95% at KRAS-G12D [6] (numeric values) and 98.8% at KRAS-G12D [9].
Regarding `C#Cc1cccc2cc(O)cc(-c3ncc4c(N5CC6CCC(C5)N6)nc(OCC5(CN6CCN(CC7CCC8(CC7)CCN(C(=O)c7ccc(OC)c(N9CCC(=O)NC9=O)c7)CC8)CC6)CC5)nc4c3F)c12` [Example 82, 1-(5-(9-((4-((1-(((4-(3,8-diazabicyclo[3.2.1]octan-3-yl)-7-(8-ethynyl-3-hydroxynaphthalen-1-yl)-8-fluoropyrido[4,3-d]pyrimidin-2-yl)oxy)methyl)cyclopropyl)methyl)piperazin-1-yl)methyl)-3-azaspiro[5.5]undecane-3-carbonyl)-2-methoxyphenyl)dihydropyrimidine-2,4(1H,3H)-dione], the half-inhibitory concentration (IC50) in experiment [1] (numeric values) worked out at 0.0218 µM; in experiment [2], 0.00415 µM; in experiment [5] (numeric values) it was 0.00578 µM; in experiment [7] (numeric values), 0.00495 µM; in experiment [8] (numeric values), 0.0141 µM. The half-maximal degradation concentration (DC50) at KRAS-G12D [3] was determined as 0.00384 µM; at KRAS-G12D [4] it was 0.0126 µM; at KRAS-G12D [6] (numeric values) it was 0.00121 µM; on KRAS-G12D [9] it was 0.00674 µM. For the same molecule, the greatest degradation seen (Dmax) on KRAS-G12D [3] was found to be 97.7%; on KRAS-G12D [4] it was 93.7%; on KRAS-G12D [6] (numeric values) it was 99%; on KRAS-G12D [9], 100%.
